Measurements as given in patent publication US9610233B2, “Hair thickening compositions and methods of use” (The Procter & Gamble Company, priority 2013, dated 2017).

Legend:
[1] = Measurement of Average Thickness Increase of single hair fibers; settings: Sepigel 1.89%, Example 1 formula, fibers treated 10 minutes, dried overnight
Experimental: Measurement of Average Thickness Increase
• 1) Asian or Caucasian hair fibers (low-lift general population) are soaked in deionized water for 10 minutes, and allowed to equilibrate overnight in at Controlled Temperature and Humidity room (20 C, 50 RH). • 2) The single hair fibers are imaged with microscope and the diameter is measured using software for baseline measurement. • 3) The hair fibers are then treated with the hair care composition for 10 minutes to allow for saturation. The fibers are then removed and allowed to equilibrate and dry overnight. • 4) The next day, the fibers are imaged and measured for a final reading. For each experiment, untreated control and product treatment controls are ran, and at least 5 fibers are measured per treatment. • 5) In order to measure increase in thickness as a function of treatment, the […]. The average thickness increase is reported in the Table above, with measurements reported in micrometers. Viscosity Test Method

[2] = Viscosity Test Method (cone and plate viscometer/rheometer); format: physicochemical; settings: Sepigel 1.89%
Source text: The hair care composition may have a viscosity of from about 2,000 cps to about 20,000 cps, alternatively from about 10,000 cps to about 15,000 cps. The viscosity of the hair care composition may be determined by a cone and plate viscometer/rheometer which measures the viscous drag resulting from the sample material contained in the gap between a rotating cone and a stationary plate. The geometry of the cone and plate may be such that the entire sample is subjected to a uniform shear rate. A Brookfield Rheometer RS, with Cone C75-1, 26.7° C. temperature, 2.5 mL sample size, at 2 res/sec for 3 minutes may be used.

SMILES: Oc1cccc(O)c1 [Resorcinol, 1,3-Dihydroxybenzene]
- Average Thickness Increase ([1]; Resorcinol 0.5%): 4.2 μm
- Average Thickness Increase ([1]; Resorcinol 1%): 3.9 μm
- Average Thickness Increase ([1]; Resorcinol 2%): 13.5 μm
- Average Thickness Increase ([1]; Resorcinol 5%): 10.7 μm
- Average Thickness Increase ([1]; Resorcinol 8%): 10.3 μm
- Viscosity ([2]; composition with Resorcinol 0.5%): 14767 cps
- Viscosity ([2]; composition with Resorcinol 1%): 12115 cps
- Viscosity ([2]; composition with Resorcinol 2%): 13812 cps
- Viscosity ([2]; composition with Resorcinol 5%): 12047 cps
- Viscosity ([2]; composition with Resorcinol 8%): 10308 cps
